Test results as given in patent US20070128217A1 (priority 2003, published 2007).

What was measured:
[1] = test system: antibodies in sera from SARS patients (sera 1a, 1b, 2, 6, 37, 62, London, SARS-yellow, SARS-green); assay type: binding, human; design: Binding of serum 6 to linear peptides of protein X1 of SARS-CoV Urbani / Binding of serum 37 to linear peptides of protein X1 of SARS-CoV Urbani / Binding of serum 6 to looped/cyclic peptide (PEPSCAN-ELISA) / Binding of serum 37 to looped/cyclic peptide (PEPSCAN-ELISA) / Binding of serum 37 to looped/cyclic peptides of protein X1 of SARS-CoV Urbani / Binding of serum 6 to linear peptides of protein X2 / Binding of serum 37 to linear peptides of protein X2 / Binding of serum 37 to looped/cyclic peptides of protein X2 of SARS-CoV Urbani / Binding of serum 6 to linear peptides of protein M of SARS-CoV Urbani / Binding of serum 37 to linear peptides of protein M of SARS-CoV Urbani / Binding of serum 6 to looped/cyclic peptides of protein M of SARS-CoV Urbani / Binding of serum 37 to looped/cyclic peptides of protein M of SARS-CoV Urbani / Binding of serum 6 to linear peptides of protein X3 of SARS-CoV Urbani / Binding of serum 37 to linear peptides of protein X3 of SARS-CoV Urbani / Binding of serum 37 to looped/cyclic peptides of protein X3 of SARS-CoV Urbani / Binding of serum 6 to linear peptides of protein X4 of SARS-CoV Urbani / Binding of serum 37 to linear peptides of protein X4 of SARS-CoV Urbani / Binding of serum 37 to looped/cyclic peptides of protein X4 of SARS-CoV Urbani / Binding of serum 6 to linear peptides of protein X5 of SARS-CoV Urbani / Binding of serum 37 to linear peptides of protein X5 of SARS-CoV Urbani / Binding of serum 37 to looped/cyclic peptides of protein X5 of SARS-CoV Urbani / Binding of serum 6 to linear peptides of protein N of SARS-CoV Urbani / Binding of serum 37 to linear peptides of protein N of SARS-CoV Urbani / Binding of serum 6 to linear peptide (PEPSCAN-ELISA) / Binding of serum 1a to looped/cyclic peptides of protein N of SARS-CoV Urbani / Binding of serum 1b to looped/cyclic peptides of protein N of SARS-CoV Urbani / Binding of serum 2 to looped/cyclic peptides of protein N of SARS-CoV Urbani / Binding of serum 6 to looped/cyclic peptides of protein N of SARS-CoV Urbani / Binding of serum 37 to looped/cyclic peptides of protein N of SARS-CoV Urbani / Binding of serum 62 to looped/cyclic peptides of protein N of SARS-CoV Urbani / Binding of serum London to looped/cyclic peptides of protein N of SARS-CoV Urbani / Binding of serum SARS-green to looped/cyclic peptides of protein N of SARS-CoV Urbani: unit not given here
[2] = test system: control sera (pooled serum of ten healthy LUMC hospital workers; commercial negative donor pooled serum from the Dutch bloodbank); assay type: binding, human; design: Binding of Control serum LUMC to linear peptides / Binding of Control serum Blood-bank to linear peptides / Binding of Control serum LUMC to looped peptides / Binding of Control Serum Blood-Bank to Looped peptides / Binding of Control serum LUMC to linear peptides of the protein M of SARS-CoV Urbani / Binding of Control serum Blood-bank to linear peptides of the protein M of SARS-CoV Urbani / Binding of Control serum LUMC to looped peptides of the protein M of SARS-CoV Urbani / Binding of Control Serum Blood-Bank to Looped peptides of the protein M of SARS-CoV Urbani: unit not given here

## ACRTIMRCWLCWKCK
[1]
  Binding of serum 1a to looped/cyclic peptide (PEPSCAN-ELISA): 0.7
  Binding of serum 1b to looped/cyclic peptide (PEPSCAN-ELISA): 0.9
  Binding of serum 2 to looped/cyclic peptide (PEPSCAN-ELISA): 0.6
  Binding of serum 6 to looped/cyclic peptide (PEPSCAN-ELISA): 0.3
  Binding of serum 37 to looped/cyclic peptide (PEPSCAN-ELISA): 0.8
  Binding of serum 62 to looped/cyclic peptide (PEPSCAN-ELISA): 0.5
  Binding of serum London to looped/cyclic peptide (PEPSCAN-ELISA): 0.2
  Binding of serum SARS-green to looped/cyclic peptide (PEPSCAN-ELISA): 1.2
  Binding of serum SARS-yellow to looped/cyclic peptide (PEPSCAN-ELISA): 0.7

## CPSGTYEGNSPFHPL
[2]
  Binding of Control Serum Blood-Bank to Looped peptides: 0.8
  Binding of Control serum Blood-bank to linear peptides: 0.7
  Binding of Control serum LUMC to linear peptides: 0.6
  Binding of Control serum LUMC to looped peptides: 0.8

## HRWHTMVQTGTPNVT
[2]
  Binding of Control Serum Blood-Bank to Looped peptides: 0.4
  Binding of Control serum Blood-bank to linear peptides: 0.8
  Binding of Control serum LUMC to linear peptides: 0.4
  Binding of Control serum LUMC to looped peptides: 0.4

## LACPVLAAVYRINWV
[2]
  Binding of Control Serum Blood-Bank to Looped peptides of the protein M of SARS-CoV Urbani: 0.7
  Binding of Control serum Blood-bank to linear peptides of the protein M of SARS-CoV Urbani: 0.7
  Binding of Control serum LUMC to linear peptides of the protein M of SARS-CoV Urbani: 0.6
  Binding of Control serum LUMC to looped peptides of the protein M of SARS-CoV Urbani: 0.7

## LCKHKKVSTNLGTHS
[1]
  Binding of serum 1a to looped/cyclic peptides of protein X2 of SARS-CoV Urbani: 0.3
  Binding of serum 1b to looped/cyclic peptides of protein X2 of SARS-CoV Urbani: 0.4
  Binding of serum 2 to looped/cyclic peptides of protein X2 of SARS-CoV Urbani: 0.3
  Binding of serum 6 to looped/cyclic peptides of protein X2 of SARS-CoV Urbani: 0.3
  Binding of serum 37 to looped/cyclic peptides of protein X2 of SARS-CoV Urbani: 0.3
  Binding of serum 62 to looped/cyclic peptides of protein X2 of SARS-CoV Urbani: 0.4
  Binding of serum London to looped/cyclic peptides of protein X2 of SARS-CoV Urbani: 0.3
  Binding of serum SARS-green to looped/cyclic peptides of protein X2 of SARS-CoV Urbani: 0.3
  Binding of serum SARS-yellow to looped/cyclic peptides of protein X2 of SARS-CoV Urbani: 0.5

## LLIQQWTQFMMSRRR
[2]
  Binding of Control Serum Blood-Bank to Looped peptides: 0.6
  Binding of Control serum Blood-bank to linear peptides: 0.5
  Binding of Control serum LUMC to linear peptides: 0.4
  Binding of Control serum LUMC to looped peptides: 0.5

## QLALYKGFQPICNLL
[1]
  Binding of serum 1a to linear peptides of protein X1 of SARS-CoV Urbani: 0.6
  Binding of serum 1b to linear peptides of protein X1 of SARS-CoV Urbani: 0.5
  Binding of serum 2 to linear peptides of protein X1 of SARS-CoV Urbani: 0.4
  Binding of serum 6 to linear peptides of protein X1 of SARS-CoV Urbani: 0.5
  Binding of serum 37 to linear peptides of protein X1 of SARS-CoV Urbani: 0.6
  Binding of serum 62 to linear peptides of protein X1 of SARS-CoV Urbani: 0.6
  Binding of serum London to linear peptides of protein X1 of SARS-CoV Urbani: 0.2
  Binding of serum SARS-green to linear peptides of protein X1 of SARS-CoV Urbani: 0.2
  Binding of serum SARS-yellow to linear peptides of protein X1 of SARS-CoV Urbani: 0.5

## RTLSYYKLGASQPVG
[2]
  Binding of Control Serum Blood-Bank to Looped peptides of the protein M of SARS-CoV Urbani: 0.6
  Binding of Control serum Blood-bank to linear peptides of the protein M of SARS-CoV Urbani: 0.9
  Binding of Control serum LUMC to linear peptides of the protein M of SARS-CoV Urbani: 0.8
  Binding of Control serum LUMC to looped peptides of the protein M of SARS-CoV Urbani: 0.8

## TLGSITAQPVKTDNA
[2]
  Binding of Control Serum Blood-Bank to Looped peptides: 0.6
  Binding of Control serum Blood-bank to linear peptides: 0.5
  Binding of Control serum LUMC to linear peptides: 0.7
  Binding of Control serum LUMC to looped peptides: 0.6

## WQLALYKGFQFTCNL
[2]
  Binding of Control Serum Blood-Bank to Looped peptides: 0.6
  Binding of Control serum Blood-bank to linear peptides: 0.6
  Binding of Control serum LUMC to linear peptides: 0.6
  Binding of Control serum LUMC to looped peptides: 0.7
